Like-named read-outs stand apart in the source and are kept apart here.
Columns and labels:
[1] = Isothermal titration calorimetry of Ca^2+ binding to S100A4 constructs
Description: Fig. 2 ITC records for Ca^2+ binding to S100A4 constructs: (a) 75 μM wild type at 30 °C; (b) 75 μM wild type at 10 °C; (c) 75 μM E33Q construct at 30 °C; (d) 300 μM D63N construct at 30 °C. For mutant constructs data at 10 °C, see Fig. S1. All preparations were dialysed against the same buffer of 20 mM NaCl, 10 mM Hepes, and 2 mM DTT (pH 7.5).
ITC data were collected using a VP-ITC microcalorimeter (MicroCal Ltd., Northampton, MA) and analysed by fitting to a single-site binding equation or a two-site binding equation using MicroCal Origin software.

[2] = 37 °C, 20 mM KCl, cited from earlier work
Description: At 10 °C, the first site became associated with negative enthalpy but retained a ...

M200 filamentous bundles = assay: Electron microscopy of myosin IIA tail fragments; set-up: species or system human; settings: two times stoichiometric S100A4, Ca^2+, 0.1 M Na-acetate
Description: Fig. 8 Characterisation of myosin IIA coiled-coil tail fragments. Metal-shadowed electron micrographs of (a) M200 and (b) M111 deposited from 0.5 M ammonium acetate. Scale bar represents 50 nm. (c and d) Electron micrographs of a negatively stained M200 tail fragment. Fields of M200 (c) in the absence and (d) in the presence of a 2-fold molar excess of S100A4, respectively. Arrows point to individual strands emerging from images of filamentous bundles. The samples were prepared in 0.1 M sodium acetate buffer, where M200 formed large filamentous aggregates but were solubilised in the presence of S100A4. Scale bar represents 200 nm (see Materials and Methods for details).
For negative staining, the stock solution of the M200 tail fragment was diluted with a solution consisting of 0.1 M Na-acetate, 3 mM MgCl2, 0.1 mM CaCl2, 10 mM imidazole, and 5 mM NaH2PO4 (pH 7.0), with or without 14 μM S100A4, to give a final concentration of 7 μM M200. Following dilution, 5 μl of the mixture was applied to a grid with a thin carbon film supported by a holey carbon film, and the grid was negatively stained using 1% uranyl acetate. […] Images were recorded on a 2000 × 2000 F224HD slow-scan CCD camera (TVIPS, Gauting, Germany) at a magnification of 65,000× (0.37 nm pixel^− 1). The lengths of nonoverlapping well-shadowed molecules were measured as described by Burgess et al.[47]

NM-MHC IIA rods = settings: 20 mM NaCl; cited from earlier work
Source text: Over the last two decades, there has been much interest in the role of the S100 Ca^2^+-binding protein family in the regulation of cellular events.[1,2] Identifying the specific targets of each of the 24 members[3] and deducing their mechanisms of action in vitro and in vivo remain to be a challenge. This is exemplified by S100A4 (also known as Mts1, metastasin, p9Ka, pEL98, calvasculin, and Fsp-1), which has been implicated in a wide range of cellular events and numerous diseases and binds to several different targets in vitro.[4–6] In particular, following early work,[7–9] there have been ma ...

S100A4: recombinant S100A4 expressed in E. coli BL21(DE3)
n1 (Ca^2+ per monomer) ([1]; 10 °C, 75 μM protein (D63N 300 μM), 20 mM NaCl, 10 mM Hepes, 2 mM DTT, pH 7.5): 0.95 ± 0.014 Ca^2+ per monomer | n1 (Ca^2+ per monomer) ([1]; 30 °C, 75 μM protein (D63N 300 μM), 20 mM NaCl, 10 mM Hepes, 2 mM DTT, pH 7.5): 0.83 ± 0.2 Ca^2+ per monomer | stoichiometry (discussion) ([1]; ITC): one Ca^2+ per S100A4 monomer | Kd ([1]; first site, Ca^2+ binding, 30 °C, 75 μM protein (D63N 300 μM), 20 mM NaCl, 10 mM Hepes, 2 mM DTT, pH 7.5, read-out: K1d): 1.7 µM | Kd ([1]; first site, 10 °C, wild type and E33Q cooperative, read-out: K1d): 1.6 ± 0.4 µM | Kd ([1]; one Ca^2+ per S100A4 monomer, read-out: Kd for Ca^2+ (discussion)): 1.7 µM | Kd ([1]; read-out: Ca^2+ affinity of S100A4 dimer (discussion)): 2 to 6 µM | N2 (Ca^2+ per monomer) ([1]; second site, 30 °C): 0.42 ± 0.27 Ca^2+ per monomer | Kd ([1]; second site, 30 °C, read-out: K2d): 5.7 ± 1.1 µM | stoichiometry of the higher-affinity site ([1]; summary of Table 1): 0.8–0.9 Ca^2+ per monomer | Kd ([1]; temperatures of ≥ 30 °C, read-out: Kd of second site (discussion)): 6 µM | Kd ([2]; read-out: Kd, site with negative enthalpy): 54 µM | Kd ([2]; read-out: Kd, site with positive enthalpy): 3.3 µM | M200 filamentous bundles after S100A4 addition (M200 filamentous bundles): no trace of filamentous bundles was observed | binding to rods (NM-MHC IIA rods): micromolar affinity

Reference: paper PMC3025356, “Mechanism of the Ca^2+-Dependent Interaction between S100A4 and Tail Fragments of Nonmuscle Myosin Heavy Chain IIA” (Journal of Molecular Biology, 2011)
